Experimental data published in PMC11020896, “Development of a ^99mTc-labeled tetrazine for pretargeted SPECT imaging using an alendronic acid-based bone targeting model” (PLOS ONE, 2024).

Assays:
[1] = test system: Healthy Balb/c female mice; assay: SPECT/CT quantitative image analysis of 99mTc-labeled Tzs (pretargeted with Aln-TCO, saline control, or directly targeted); type: in vivo; settings: for blood pool activity: directly targeted Aln-TCO
Procedure: (§1) The study was conducted in compliance with the guidelines set by the Canadian Council on Animal Care (CCAC) and approved by the Animal Care Committee (ACC) at the University of British Columbia (A20-0132). Healthy Balb/c female mice (~25 g) were anesthetized using isoflurane delivered via a precision vaporizer (5% in oxygen for induction, between 1.5 and 2.5% in oxygen for maintenance) and received 100 μL of a 2 mg/kg solution of Aln-TCO in saline (pretargeted groups), or 100 μL saline (control groups) via intravenous injection. After 1 h, mice were anesthetized again and received another i.v. injection containing 100 μL of ^99mTc labeled Tzs in saline, with an average activity of 17.58 MBq, as well as a subcutaneous injection of Lactated Ringer’s solution (0.5 mL) to ensure hydration before each imaging scan. After the injection, a VECTor/CT multimodal preclinical scanner (MILabs, The Netherlands) equipped with a HEUHR-1 mm mouse pinhole collimator was used to obtain static whole-body images. The first scans were obtained with a single frame lasting 25 minutes, followed by scans at 2- and 6-hours post-injection, each with a single frame lasting 40 and 50 minutes, respectively.
Throughout the scanning process, mice were maintained under isoflurane anesthesia and kept warm with a heating pad to ensure constant body temperature. Following each SPECT acquisition, a whole-body CT scan was performed to obtain anatomical information and the two images were registered. The ^99mTc photopeak window was centered at 140 keV with a 25% energy window width. SPECT image reconstructions were carried out using a pixel-ordered subset expectation maximization (POSEM) algorithm with 16 subsets, 6 iterations, and an isotropic 0.4 mm voxel grid to enable quantitative analysis. The images were decay corrected, and after CT registration, attenuation correction was applied. For visual representation, the reconstructed volumes of SPECT scans were post-filtered with a 3D Gaussian filter. CT scans were conducted using a tube setting of 55 kV and 615 μA, and 2 frames of 180 projections over 360 degrees were captured in step and shoot rotation mode. The acquired projection data was reconstructed using SkyScan NRecon software to generate a 3D CT image on 0.169 mm^3 voxel size. Volumes of interest (VOIs), in the left ventricle of the heart (blood pool), liver (n = 3), bladder, kidney (n = 2), shoulder and knee joint (n = 2, respectively) were manually defined using AMIDE [49] (v.1.0.5) to determine the time activity pattern per target organ. The average organ activity per volume was obtained from the SPECT images and the %ID/g of tissue were extracted from each organ. To relate the scanner units (counts/pixel) to radioactivity concentration (MBq/mL), a calibration factor was determined scanning a source with a known concentration of ^99mTc. Following the last time imaging time point (6 h, except mice injected with ^99mTc-3, which were sacrificed 24 h p.i.), mice were sacrificed via CO2 asphyxiation under isoflurane anesthesia. Blood was recovered via cardiac puncture and organs of interest were dissected out, cleaned and weighed. The bone uptake of the shoulder was measured by measuring the activity of scapula and humerus, cut below the elbow joint, while knee uptake was measured in the femur, cut below the knee joint. […] The activity was quantified on a calibrated Cobra II Autogamma counter (Packard Instruments, USA) and decay corrected to the time of injection. […]

[2] = test system: Healthy Balb/c female mice; assay: Post-mortem (ex vivo) biodistribution after last imaging time point, gamma counter; type: in vivo
Procedure: as §1
Throughout the scanning process, mice were maintained under isoflurane anesthesia and kept warm with a heating pad to ensure constant body temperature. Following each SPECT acquisition, a whole-body CT scan was performed to obtain anatomical information and the two images were registered. The ^99mTc photopeak window was centered at 140 keV with a 25% energy window width. SPECT image reconstructions were carried out using a pixel-ordered subset expectation maximization (POSEM) algorithm with 16 subsets, 6 iterations, and an isotropic 0.4 mm voxel grid to enable quantitative analysis. The images were decay corrected, and after CT registration, attenuation correction was applied. For visual representation, the reconstructed volumes of SPECT scans were post-filtered with a 3D Gaussian filter. CT scans were conducted using a tube setting of 55 kV and 615 μA, and 2 frames of 180 projections over 360 degrees were captured in step and shoot rotation mode. The acquired projection data was reconstructed using SkyScan NRecon software to generate a 3D CT image on 0.169 mm^3 voxel size. Volumes of interest (VOIs), in the left ventricle of the heart (blood pool), liver (n = 3), bladder, kidney (n = 2), shoulder and knee joint (n = 2, respectively) were manually defined using AMIDE [49] (v.1.0.5) to determine the time activity pattern per target organ. The average organ activity per volume was obtained from the SPECT images and the %ID/g of tissue were extracted from each organ. To relate the scanner units (counts/pixel) to radioactivity concentration (MBq/mL), a calibration factor was determined scanning a source with a known concentration of ^99mTc. Following the last time imaging time point (6 h, except mice injected with ^99mTc-3, which were sacrificed 24 h p.i.), mice were sacrificed via CO2 asphyxiation under isoflurane anesthesia. Blood was recovered via cardiac puncture and organs of interest were dissected out, cleaned and weighed. The bone uptake of the shoulder was measured by measuring the activity of scapula and humerus, cut below the elbow joint, while knee uptake was measured in the femur, cut below the knee joint. Bone samples were thoroughly cleaned from muscle and connective tissue. The activity was quantified on a calibrated Cobra II Autogamma counter (Packard Instruments, USA) and decay corrected to the time of injection.

[3] = directly targeted Aln-TCO, biodistribution 6 h p.i., ratio of %ID/g
[4] = directly targeted Aln-TCO, sacrificed 6 h p.i.

O=C(O)CN(CCNC(=O)CCOCCOCCOCCOCCOCCOCCOCCOCCNC(=O)CCCC(=O)Nc1ccc(-c2nncnn2)cc1)Cc1cccc(C(=O)O)n1 [Tz 4, 6-(38-((4-(1,2,4,5-tetrazin-3-yl)phenyl)amino)-2-(carboxymethyl)-6,34,38-trioxo-9,12,15,18,21,24,27,30-octaoxa-2,5,33-triazaoctatriacontyl)picolinic acid]
bone accumulation, pretargeted vs. non-targeted group ([1]; image analysis of shoulder and knee at 0, 2 and 6 h p.i.): did not show statistically significant bone uptake at any time point compared to the saline control

O=C(O)CN(CCNC(=O)CCCC(=O)Nc1ccc(-c2nnc(-c3ccccn3)nn2)nc1)Cc1cccc(C(=O)O)n1 (99mTc complex, metal not drawn) [Tz 1, 6-(((carboxymethyl)(2-(5-oxo-5-((6-(6-(pyridin-2-yl)-1,2,4,5-tetrazin-3-yl)pyridin-3-yl)amino)pentanamido)ethyl)amino)methyl)picolinic acid]
difference in blood pool activity, 1* vs 1a ([1]; 6 h p.i.): 15 fold
blood pool activity ([1]; image analysis, 0 h): 27.35 ± 3.79 %ID/g
liver activity over time ([1]; image analysis, 0-6 h, directly targeted): increase over time
blood pool activity ([1]; image analysis, 6 h p.i.): 3.66 ± 0.65 %ID/g
Knee/Blood ratio [2, 3]: 2.39 ± 0.09
Knee/Liver ratio [2, 3]: 0.17 ± 0.09
Shoulder/Blood ratio [2, 3]: 1.29 ± 0.30
Shoulder/Liver ratio [2, 3]: 0.09 ± 0.30
Bladder activity, post-mortem biodistribution [2, 4]: 1.22 ± 0.04 % ID/g
Blood activity, post-mortem biodistribution [2, 4]: 3.82 ± 0.32 % ID/g
Brain activity, post-mortem biodistribution [2, 4]: 0.10 ± 0.01 % ID/g
Heart activity, post-mortem biodistribution [2, 4]: 2.87 ± 0.27 % ID/g
Intestine activity, post-mortem biodistribution [2, 4]: 3.85 ± 0.49 % ID/g
Kidney activity, post-mortem biodistribution [2, 4]: 9.04 ± 0.60 % ID/g
Knee activity, post-mortem biodistribution [2, 4]: 9.13 ± 0.73 % ID/g
Liver activity, post-mortem biodistribution [2, 4]: 54.39 ± 4.03 % ID/g
Lung activity, post-mortem biodistribution [2, 4]: 6.70 ± 0.85 % ID/g
Muscle activity, post-mortem biodistribution [2, 4]: 0.31 ± 0.01 % ID/g
Pancreas activity, post-mortem biodistribution [2, 4]: 1.20 ± 0.20 % ID/g
Shoulder activity, post-mortem biodistribution [2, 4]: 4.91 ± 1.43 % ID/g
Spleen activity, post-mortem biodistribution [2, 4]: 38.03 ± 4.69 % ID/g
Stomach activity, post-mortem biodistribution [2, 4]: 1.70 ± 0.10 % ID/g
uptake in liver and spleen ([2]; directly targeted, 6 h p.i.): strong uptake
